Assay results reported in patent publication US8673882B2, “Inhibitors of autotaxin” (University of Tennessee Research Foundation, priority 2011, dated 2014).

Experiments:
Type in all cases: biochemical
NPP6 = target: T1, NPP6 (Homo sapiens, UniProt Q6UWR7); assay: NPP-6 inhibition assay (pNPPC substrate); conditions: 10 μM compound; 8.3 nM enzyme; 10 μM pNPPC; read-out: NPP6 Activity, % control (10 μM)
T1 sequence (Q6UWR7 23-419): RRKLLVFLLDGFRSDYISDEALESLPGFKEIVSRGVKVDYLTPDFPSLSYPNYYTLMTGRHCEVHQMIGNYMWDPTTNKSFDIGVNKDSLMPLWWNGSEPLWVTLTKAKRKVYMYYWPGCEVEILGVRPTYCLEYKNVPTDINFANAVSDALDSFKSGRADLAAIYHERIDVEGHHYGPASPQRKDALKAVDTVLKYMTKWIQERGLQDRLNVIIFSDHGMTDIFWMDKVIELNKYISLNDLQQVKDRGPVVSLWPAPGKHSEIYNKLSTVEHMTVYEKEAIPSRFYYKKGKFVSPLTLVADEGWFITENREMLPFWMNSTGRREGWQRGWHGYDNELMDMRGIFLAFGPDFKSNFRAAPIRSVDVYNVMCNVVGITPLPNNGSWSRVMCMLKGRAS
Description: (§1) NPP6 and NPP7 are the only NPP isoforms other than ATX that are known to utilize lysophospholipid phosphodiesters as substrates. Therefore, the specificity of the chemical compounds of the invention regarding ATX was addressed by determining the activity of NPP6 and NPP7 in the presence and absence of these analogs.
(§2) Inhibition of NPP6 and NPP7 was evaluated using recombinant, purified proteins, the synthetic substrate para-nitrophenylphosphocholine (pNPPC) and a Synergy II plate reader (BioTek, Winooski, Vt.). The final concentration of each enzyme was 8.3 nM and pNPPC was 10 μM. All analogs were tested at single 10 μM concentrations. Absorbance of liberated para-nitrophenol at 405 nm was determined up to 1 hour (where responses were linear) and was normalized to vehicle control.

recombinant human ATX = recombinant human ATX (Homo sapiens, UniProt Q13822); assay: Autotaxin inhibition screening assay (FS-3 FRET substrate); conditions: 10 μM compound; 2 nM recombinant human ATX; 1 μM FS-3; 2 h, 37° C.; read-out: ATX Activity, % control (10 μM)
Description: A 10 μM concentration of the compound is added to 2 nM recombinant human ATX and the FRET (Fluorescence Resonance Energy Transfer) ATX substrate FS-3.
As the first level of screen, 50 μl of recombinant-ATX (2 nM in final concentration) in assay buffer [(Tris 50 mM, NaCl 140 mM, KCl 5 mM, CaCl2 1 mM, MgCl2 1 mM (pH 8.0)] was mixed with 25 μL of FS-3 (Echelon Biosciences, Inc., Salt lake city, Utah), final concentration 1 μM, and 25 μl of test compound was dissolved in assay buffer with 40 μM bovine serum albumin (Sigma, St. Louis, Mo.) in 96-well Costar black-well plate. FS-3 fluorescence at excitation and emission wavelengths of 485 and 538 nm, respectively, were monitored using a FLEXstation II (Molecular Devices, Sunnyvale, Calif.) for 2 h of incubation at 37° C. The differences between time 0 and 120 min were calculated individually and normalized to the vehicle control. The mean±SD of triplicate samples was expressed as percentage of ATX activity. The ATX activity in the presence of the test compounds was compared to vehicle using the […] p<0.05 was considered significant.
The first level of testing was done using 10 μM concentrations of the compounds shown in Tables 1 and 2 added to 2 nM recombinant human ATX and the FRET substrate FS-3. After a 2 h incubation the amount of FS3 hydrolyzed was measured and the residual ATX activity was expressed as a percent of the vehicle-treated sample less the autolysis of FS3 in the absence of ATX.

NPP7 = target: T2, NPP7 (Homo sapiens, UniProt Q6UWV6); assay: NPP-7 inhibition assay (pNPPC substrate); conditions: 10 μM compound; 8.3 nM enzyme; 10 μM pNPPC; read-out: NPP7 Activity, % control (10 μM)
T2 sequence (Q6UWV6 22-458): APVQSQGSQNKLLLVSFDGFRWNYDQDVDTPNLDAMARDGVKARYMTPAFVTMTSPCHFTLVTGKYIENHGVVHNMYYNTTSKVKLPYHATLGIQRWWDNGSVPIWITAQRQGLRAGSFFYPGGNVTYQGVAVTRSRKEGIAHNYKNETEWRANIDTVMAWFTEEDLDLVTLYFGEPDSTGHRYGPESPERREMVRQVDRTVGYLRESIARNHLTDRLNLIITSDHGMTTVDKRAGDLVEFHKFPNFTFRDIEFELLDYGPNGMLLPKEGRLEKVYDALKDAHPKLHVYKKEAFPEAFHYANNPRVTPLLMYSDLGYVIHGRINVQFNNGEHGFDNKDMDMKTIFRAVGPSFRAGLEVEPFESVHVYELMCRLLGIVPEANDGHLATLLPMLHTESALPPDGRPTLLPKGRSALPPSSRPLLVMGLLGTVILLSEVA
Description: as §1, §2

[1] = target: recombinant, purified human ATX (Homo sapiens, UniProt Q13822); assay: Mechanism of autotaxin inhibition (IC50, Ki, Ki′; FS-3 hydrolysis); conditions: for IC50: 8.3 nM ATX, 1 μM FS-3, 15 μM BSA; for ATX Mechanism of inhibition: FS-3 0.3 μM to 20 μM, inhibitor 0, 0.5× and 2× IC50
Description: The mechanism of inhibition of ATX was determined using recombinant, purified human ATX and FS-3. Final ATX and FS-3 concentrations were 8.3 nM and 1 μM, respectively and the assay buffer with 15 μM fatty acid tree BSA. To calculate IC50, full dose responses were determined for the test compounds. […] Simultaneous non-linear regression, using, WinNonLin® 6.1 (Pharsight, Mountain View, Calif.) was used to assign the mechanism of inhibition. Ki and Ki′ values (the affinity for free enzyme and enzyme substrate complex, respectively) were determined by calculating the lowest averaged percent residuals for each mechanism derived from curve fitting using the Michealis-Menten equations for competitive, uncompetitive, mixed-mode, and non-competitive inhibition.

[2] = affinity for enzyme substrate complex

Compound	remaining activity at 10 µM (NPP6)	remaining activity at 10 µM (recombinant human ATX)	remaining activity at 10 µM (NPP7)	IC50 [1]	ATX Mechanism of inhibition [1]	Ki [1, 2]	Ki ([1]; affinity for free enzyme)
CCCCCCCCCCCCCCCCS(=O)(=O)Nc1ccc(CP(=O)(O)O)cc1 [Compound 4, 4-(Hexadecane-1-sulfonylamino)benzyl phosphonic acid]	102%	24.1%	93.5%				
CCCCCCCCCCCCCCOc1ccc(CP(=O)(O)O)cc1 [Compound 10, 4-(Tetradecyloxy)benzylphosphonic acid]	102%		101%				
CCCCCCCCCCCCC/C=C/c1ccc(CP(=O)(O)O)cc1 [Compound 18, (E)-4-(Pentadec-1-enyl)benzylphosphonic acid]	104%	18.8%	97.7%				
CCCCCCCCCCCCCCCc1ccc(C(O)P(=O)(O)O)cc1 (stereo not shown) [Compound 37, Hydroxy-4-pentadecylphenylmethylphosphonic acid]	99.6%	9.2%	101%	0.73 µM	Mixed	0.7 µM	0.45 µM
CCCCCCCCCCCCCCCc1ccc(C(F)P(=O)(O)O)cc1 (stereo not shown) [Compound 41, Fluoro-4-pentadecylphenylmethyl phosphonic acid]	101%	42.3%	103%	17.9 µM	Mixed	5.54 µM	4.97 µM
CCCCCCCCCCCCCCCc1ccc(C(Cl)P(=O)(O)O)cc1 (stereo not shown) [Compound 42, Chloro-4-pentadecylphenylmethyl phosphonic acid]	101%	118%	99.9%				
CCCCCCCCCCCCCCCc1ccc(C(Br)P(=O)(O)O)cc1 (stereo not shown) [Compound 43, Bromo-4-pentadecylphenylmethyl phosphonic acid]	99.3%	60.1%	99.5%	10.1 µM	Mixed	2.97 µM	6.1 µM
CCCCCCCCCCCCCCCc1ccc(COP(=O)(O)O)cc1 [Compound 45, 4-pentadecylbenzyl dihydrogen phosphate]	101%	85.2%	98.8%				
CCCCCCCCCCCCCCCc1ccc(COP(O)(O)=S)cc1 [Compound 47, O-4-pentadecylbenzyl O,O-dihydrogen phosphorothioate]	98.8%		92.9%	1.54 µM	Mixed	4.43 µM	4.45 µM
CCCCCCCCCCCCCC(=O)Nc1ccc(CP(=O)(O)O)cc1 [Compound S32826, 4-tetradecanoylaminobenzyl phosphonic acid, reference compound]	102%		101%				

More lines, now with the values ahead:

remaining activity at 10 µM (NPP6)	remaining activity at 10 µM (recombinant human ATX)	remaining activity at 10 µM (NPP7)	IC50 [1]	ATX Mechanism of inhibition [1]	Ki [1, 2]	Ki ([1]; affinity for free enzyme)	Compound
103%	61.3%	100%					CCCCCCCCCC/C=C/c1ccc2cc(CP(=O)(O)O)ccc2c1 [Compound 30a, (E)-6-Dodec-1-enyl-naphthalen-2-yl-methylphosphonic acid]
101%	19.9%	98.8%					CCCCCCCCCCCCc1ccc2cc(CP(=O)(O)O)ccc2c1 [Compound 34a, 6-Dodecylnaphthalen-2-yl-methylphosphonic acid]
100%	50.8%	94.7%					CCCCCCCCCCCCCc1ccc2cc(CP(=O)(O)O)ccc2c1 [Compound 34b, 6-Tridecylnaphthalen-2-yl-methylphosphonic acid]
